{"source": "patent US11865103B2", "about": "“Methods of treating disorders associated with glycosylation defective proteins” (CASE WESTERN RESERVE UNIVERSITY, priority 2016, dated 2024)", "system": "hCLRN1^N48K-YFP", "test": "Hair bundle localization of hCLRN1^N48K-YFP (YFP intensity) in neuromast hair cells of live larvae treated with SERCA inhibitors", "assay_type": "in vivo, zebrafish", "parameters": "key to YFP intensity in the bundle compared to untreated control / YFP intensity, post-exposure hair cell body hCLRN1N48K aggregates recovery: “—” = The YFP intensity in the bundle is similar to untreated control.; “+” = The YFP intensity in the bundle is higher compared to untreated control", "conditions": "for Hair bundles with strong expression of hCLRN1^N48K-YFP protein / Increase in trafficking of hCLRN1^N48K to the hair bundle: 1 μM TG or 0.4 μM ART; for Hair bundles with strong expression of hCLRN1^N48K-YFP protein: untreated <5%, FIG. 4I; for Cumulative average of YFP intensity in the ROI in hair bundles (Mean±SEM) / Increase in trafficking of hCLRN1^N48K to the hair bundle: hCLRN1^N48K-YFP, clrn1^+/+ larvae; for Cumulative average of YFP intensity in the ROI in hair bundles (Mean±SEM): 1 uM TG or 0.4 uM ART + 0.01% DMSO in E3 medium, untreated 5.927±0.32; for Increase in trafficking of hCLRN1^N48K to the hair bundle: versus untreated", "experimental": "hCLRN1-YFP predominantly localize to the hair bundle and a weak expression in the hair cell membrane in the transgenic hCLRN1-YFP; clrn1^+/+ zebrafish line, and the human pathogenic variant hCLRN1^N48K-YFP mislocalized in the endoplasmic reticulum (ER) with a small amount manages to get trafficked to the hair bundle of the transgenic hCLRN1^N48K-YFP; clrn1^+/+ zebrafish larvae. A relative quantification of YFP fluorescence intensity was carried-out to compare the quantity of hCLRN1^N48K-YFP that manages to localize in the hair bundle to the hCLRN1-YFP in the hair bundle. To quantify the YFP fluorescence intensity, unadjusted 1 micron middle section images of four hair bundles per neuromast were analyzed in Image J. Fluorescence intensity is reported as the background subtracted Integrated Density value. While Confocal microscopy imaging of neuromast hair bundles from the above mentioned groups, YFP fluorescence channel was unadjusted between siblings from the tested groups, and images chosen for figures were near the mean of the group data. Z-stack image of neuromast hair cells were captures using SP2 confocal microscope and the YFP fluorescence measurements in the hair bundles from 1) control uninjected and 2) unconventional secretory pathway cargo injected groups were obtained using ImageJ. A triangle shaped region of interest covering the area of hair bundle in 1 micron thickness middle section of z-stack image of neuromast hair cells was used to obtain YFP fluorescence pixel intensity measurements (Ihair bundle) and an area without hair cells (Ibackground) in the same image. Fluorescence intensity of YFP (Iload) for each hair bundle in a given neuromast was normalized (Iload=Ihair bundle−Ibackground). We analyzed 4 hair bundle per neuromast per larva, and the YFP fluorescence intensity per neuromast was represented as average of 4 hair bundle YFP intensity (IAvg. load=[…] in a neuromast/larva). And the mean of the total IAvg. load per group was considered for statistical comparison between groups. Student's t-test was used to confirm the observed changes in the YFP intensity in the hair bundles of hGRASP55 mRNA injected compared to hSNX27 mRNA injected and uninjected is significant.\nThapsigargin (TG, 1 mg, Sigma-Aldrich, #T9033) stock in 100% DMSO was diluted in E3 medium to make the required final concentration of the drug. Five different concentrations that were earlier reported to induce ER stress and are non-toxic or lower lethal dose (LD50) in the zebrafish (0.1, 0.5, 1.0, 2.5, 5 μM concentrations) were used in this study. A total of 25 larvae per dosage and treatment duration from the genotypes hCLRN1^N48K-YFP; clrn1^+/+ and hCLRN1-YFP; clrn1^+/+, no older than 72 hours post fertilization (hpf) at the start of the experiment, were placed in a well of 12-well uncoated culture plate (BD Falcon, Canaan, CT). For ER stress induction, larvae were incubated in different dosage of TG from 1 hr to overnight at 28.5° C., followed by three times wash with E3 medium at 28.5° C. (Table 2) and hair cells from the hCLRN1^N48K-YFP; clrn1^+/+ and hCLRN1-YFP; clrn1^+/+ lines were examined for the respective protein distribution pattern in the hair cell bundle and the cell body. Live confocal images of ‘O’ and ‘ML1’ neuromasts per larvae were capture using Leica SP2 confocal microscope with 40× oil immersion objective. Unadjusted 1 micron middle section images of four hair bundles per ML1 neuromast of larvae from TG treated and untreated groups were analyzed using Image J software version v. 1.48 (FIG. 4). The hair bundle trafficked amount of hCLRN1^N48K protein corresponds to the change in YFP intensity in the hair bundle in the TG treated larvae. Quantification of YFP fluorescence intensity was carried out as described in the previous experiment for unconventional trafficking of hCLRN1^N48K-YFP by hGRASP55 cargos. […]", "data": [{"molecule": "C[C@@H]1CC[C@H]2[C@@H](C)C(=O)O[C@@H]3O[C@@]4(C)CC[C@@H]1[C@]32OO4", "note": "[ART, Artemisinin]", "values": [{"measurement": "Hair bundles with strong expression of hCLRN1^N48K-YFP protein", "value": 76, "unit": "%"}, {"measurement": "YFP intensity in the bundle compared to untreated control", "setting": "ART 0.1 μM, exposure 1 h", "value": "—"}, {"measurement": "YFP intensity in the bundle compared to untreated control", "setting": "ART 0.1 μM, exposure 2 h", "value": "—"}, {"measurement": "YFP intensity in the bundle compared to untreated control", "setting": "ART 0.1 μM, exposure 4 h", "value": "—"}, {"measurement": "YFP intensity in the bundle compared to untreated control", "setting": "ART 0.1 μM, exposure 6 h", "value": "—"}, {"measurement": "YFP intensity in the bundle compared to untreated control", "setting": "ART 0.1 μM, exposure 8 h", "value": "—"}, {"measurement": "YFP intensity in the bundle compared to untreated control", "setting": "ART 0.1 μM, exposure 10 h", "value": "—"}, {"measurement": "YFP intensity, post-exposure hair cell body hCLRN1N48K aggregates recovery", "setting": "ART 0.1 μM, post-exposure recovery time 10 h", "value": "—"}, {"measurement": "YFP intensity, post-exposure hair cell body hCLRN1N48K aggregates recovery", "setting": "ART 0.1 μM, post-exposure recovery time 24 h", "value": "—"}, {"measurement": "YFP intensity, post-exposure hair cell body hCLRN1N48K aggregates recovery", "setting": "ART 0.1 μM, post-exposure recovery time 48 h", "value": "—"}, {"measurement": "YFP intensity in the bundle compared to untreated control", "setting": "ART 0.25 μM, exposure 1 h", "value": "—"}, {"measurement": "YFP intensity in the bundle compared to untreated control", "setting": "ART 0.25 μM, exposure 6 h", "value": "—"}, {"measurement": "YFP intensity in the bundle compared to untreated control", "setting": "ART 0.25 μM, exposure 10 h", "value": "—"}, {"measurement": "YFP intensity, post-exposure hair cell body hCLRN1N48K aggregates recovery", "setting": "ART 0.25 μM, post-exposure recovery time 10 h", "value": "—"}, {"measurement": "YFP intensity, post-exposure hair cell body hCLRN1N48K aggregates recovery", "setting": "ART 0.25 μM, post-exposure recovery time 24 h", "value": "—"}, {"measurement": "YFP intensity, post-exposure hair cell body hCLRN1N48K aggregates recovery", "setting": "ART 0.25 μM, post-exposure recovery time 48 h", "value": "—"}, {"measurement": "YFP intensity in the bundle compared to untreated control", "setting": "ART 0.4 μM, exposure 1 h", "value": "—"}, {"measurement": "YFP intensity in the bundle compared to untreated control", "setting": "ART 0.4 μM, exposure 2 h", "value": "—"}, {"measurement": "YFP intensity in the bundle compared to untreated control", "setting": "ART 0.4 μM, exposure 6 h", "value": "+"}, {"measurement": "Cumulative average of YFP intensity in the ROI in hair bundles (Mean±SEM)", "value": "31.04±1.25"}, {"measurement": "Increase in trafficking of hCLRN1^N48K to the hair bundle", "value": 5, "unit": "folds"}]}, {"molecule": "C/C=C(/C)C(=O)O[C@H]1C(C)=C2[C@H]([C@@H]1OC(=O)CCCCCCC)[C@@](C)(OC(C)=O)C[C@H](OC(=O)CCC)[C@@]1(O)[C@H]2OC(=O)[C@@]1(C)O", "note": "[TG, Thapsigargin]", "values": [{"measurement": "Hair bundles with strong expression of hCLRN1^N48K-YFP protein", "value": 38, "unit": "%"}, {"measurement": "YFP intensity in the bundle compared to untreated control", "setting": "TG 0.1 μM, exposure 1 h", "value": "—"}, {"measurement": "YFP intensity in the bundle compared to untreated control", "setting": "TG 0.1 μM, exposure 2 h", "value": "—"}, {"measurement": "YFP intensity in the bundle compared to untreated control", "setting": "TG 0.1 μM, exposure 3 h", "value": "—"}, {"measurement": "YFP intensity in the bundle compared to untreated control", "setting": "TG 0.1 μM, exposure 4 h", "value": "—"}, {"measurement": "YFP intensity in the bundle compared to untreated control", "setting": "TG 0.1 μM, exposure 8 h", "value": "—"}, {"measurement": "YFP intensity in the bundle compared to untreated control", "setting": "TG 0.1 μM, exposure 16 h", "value": "—"}, {"measurement": "YFP intensity in the bundle compared to untreated control", "setting": "TG 0.5 μM, exposure 1 h", "value": "—"}, {"measurement": "YFP intensity in the bundle compared to untreated control", "setting": "TG 0.5 μM, exposure 2 h", "value": "—"}, {"measurement": "YFP intensity in the bundle compared to untreated control", "setting": "TG 0.5 μM, exposure 3 h", "value": "—"}, {"measurement": "YFP intensity in the bundle compared to untreated control", "setting": "TG 0.5 μM, exposure 4 h", "value": "—"}, {"measurement": "YFP intensity in the bundle compared to untreated control", "setting": "TG 0.5 μM, exposure 8 h", "value": "—"}, {"measurement": "YFP intensity in the bundle compared to untreated control", "setting": "TG 1.0 μM, exposure 1 h", "value": "—"}, {"measurement": "YFP intensity in the bundle compared to untreated control", "setting": "TG 1.0 μM, exposure 2 h", "value": "—"}, {"measurement": "YFP intensity in the bundle compared to untreated control", "setting": "TG 1.0 μM, exposure 3 h", "value": "+"}, {"measurement": "Rescue of mutant protein to the hair bundle", "setting": "TG dosages lower than 1 μM", "value": "inefficient in rescuing mutant protein"}, {"measurement": "Cumulative average of YFP intensity in the ROI in hair bundles (Mean±SEM)", "value": "18.59±0.87"}, {"measurement": "Increase in trafficking of hCLRN1^N48K to the hair bundle", "value": 3, "unit": "folds"}]}]}
